# Assay results reported in patent publication US20220267274A1, “TARGETING PTPN22 IN CANCER THERAPY” (The Johns Hopkins University, priority 2019, published 2022).
# Test system: MC38 tumors
# Experiment: MC38 subcutaneous syngeneic tumor model in WT C57Bl/6J mice
# Details: LTV1 6 mg/kg/dose, treatment analogous to L1
# Protocol: All mice husbandry, experiments, and euthanasia were performed in accordance with Johns Hopkins IACUC approved protocols. WT C57Bl/6J, Balb/cJ, and PTPN22 KO (B6.Cg-Ptpn22tm2Achn/J) mice were purchased from JAX and bred in-house. For syngeneic immunocompetent mouse models, aged-matched 8-12 week old female mice were injected with MC38 (2.5×10^5) or EG7 (2.5×10^5 for rejection and 5×10^5 for treatment) or CT26 (5×10^5) subcutaneously in the right hind limb. […] LTV1 was also dissolved in DMSO and diluted to the same final formulation for administration at 6 mg/kg/dose. Vehicle injections contained 10% DMSO and 5% cremophor-EL in PBS.
structure (smiles),measurement,value
Cc1ccccc1N1C(=O)/C(=C/c2ccc(OCc3cccc(C(=O)O)c3)cc2)C(=O)NC1=S [LTV1],MC38 tumor growth compared to vehicle,moderately decreased tumor growth
